Measured values reported in publication PMC11672637, “7-O-Carboxylic Acid-Substituted 3-O-Alkyl Difluoroquercetin; An Aztreonam-Potentiating Agent Against Carbapenemase-Producing Pseudomonas aeruginosa Through Simultaneous Inhibition of Metallo-β-Lactamase and Efflux Pump” (Antibiotics, 2024).
Where two headings read alike, the source gives them in different places.

Experiments:
PA-042, blaIMP/NDM = test: MIC / checkerboard with ATM; format: cell-based, P. aeruginosa; set-up: key to Susceptibility category: S: susceptible; I: intermediate; R: resistant; details: for MIC: Pseudomonas aeruginosa
PA-016, blaIMP = test: MIC / checkerboard with ATM; format: cell-based, P. aeruginosa; set-up: key to Susceptibility category: S: susceptible; I: intermediate; R: resistant
PA-028, blaNDM = test: MIC / checkerboard with ATM; format: cell-based, P. aeruginosa; set-up: key to Susceptibility category: S: susceptible; I: intermediate; R: resistant; details: for MIC: Pseudomonas aeruginosa
PA-003, blaVIM [1] = test: Time–kill assay; format: cell-based, P. aeruginosa; details: 24 h
Method: (§1) Aliquots (50 μL) were taken from the incubation mixture at regular time intervals (t = 0, 3, 6, and 24 h), serially diluted in 0.85% NaCl solution, and plated on BAP. Bacterial colonies were counted, and the data are presented as the means of at least three independent experiments.

PA-014, blaGES = test: Time–kill assay; format: cell-based, P. aeruginosa; details: 24 h
Method: as §1

PA-037, blaIMP/NDM = test: MIC / checkerboard with ATM; format: cell-based, P. aeruginosa; set-up: key to Susceptibility category: S: susceptible; I: intermediate; R: resistant; details: for MIC: Pseudomonas aeruginosa
PA-044, blaNDM = test: MIC / checkerboard with ATM; format: cell-based, P. aeruginosa; set-up: key to Susceptibility category: S: susceptible; I: intermediate; R: resistant
PA-038, blaNDM = test: MIC / checkerboard with ATM; format: cell-based, P. aeruginosa; set-up: key to Susceptibility category: S: susceptible; I: intermediate; R: resistant; details: PA-038
PA-002, blaIMP = test: MIC / checkerboard with ATM; format: cell-based, P. aeruginosa; set-up: key to Susceptibility category: S: susceptible; I: intermediate; R: resistant; details: for MIC: Pseudomonas aeruginosa
PA-030, blaIMP = test: MIC / checkerboard with ATM; format: cell-based, P. aeruginosa; set-up: key to Susceptibility category: S: susceptible; I: intermediate; R: resistant; details: PA-030
PA-027, blaIMP = test: MIC / checkerboard with ATM; format: cell-based, P. aeruginosa; set-up: key to Susceptibility category: S: susceptible; I: intermediate; R: resistant; details: for MIC: Pseudomonas aeruginosa
PA-029, blaIMP = test: MIC / checkerboard with ATM; format: cell-based, P. aeruginosa; set-up: key to Susceptibility category: S: susceptible; I: intermediate; R: resistant; details: for MIC: Pseudomonas aeruginosa
[2] = tested on: wild-type P. aeruginosa (ATCC 27853); test: Time–kill assay; format: cell-based; details: 24 h
Method: as §1

PA-003, blaVIM [3] = test: MIC / checkerboard with ATM; format: cell-based, P. aeruginosa; set-up: key to Susceptibility category: S: susceptible; I: intermediate; R: resistant

Which results are given for `C[C@H]1[C@H](NC(=O)/C(=N\OC(C)(C)C(=O)O)c2csc(N)n2)C(=O)N1S(=O)(=O)O` [ATM, aztreonam]?
Susceptibility to ATM (PA-042, blaIMP/NDM; PA-042, ATM alone): S (S (sensitive, MIC ≤ 8 mg/L)); Susceptibility category (PA-042, blaIMP/NDM; PA-042, Table S2): S; MIC (PA-042, blaIMP/NDM; PA-042, Table S2, read-out: MIC value): 2 µg/mL; MIC (PA-042, blaIMP/NDM; read-out: MIC of ATM, PA-042, ATM alone (5 at 0 mg/L)): 2 µg/mL; Susceptibility to ATM (PA-016, blaIMP; PA-016, ATM alone): R (R (resistant, MIC ≥ 32 mg/L)); Susceptibility category (PA-016, blaIMP; PA-016, Table S2): R; MIC (PA-016, blaIMP; Pseudomonas aeruginosa, read-out: MIC of ATM, PA-016, ATM alone (5 at 0 mg/L)): 32 µg/mL; Susceptibility to ATM (PA-028, blaNDM; PA-028, ATM alone): S (S (sensitive, MIC ≤ 8 mg/L)); Susceptibility category (PA-028, blaNDM; PA-028, Table S2): S; MIC (PA-028, blaNDM; PA-028, Table S2, read-out: MIC value): 4 µg/mL; MIC (PA-028, blaNDM; read-out: MIC of ATM, PA-028, ATM alone (5 at 0 mg/L)): 8 µg/mL; Log CFU/mL, ATM only (PA-003, blaVIM [1]; ATM 1/2 MIC): 9.88 Log CFU/mL; Log CFU/mL, ATM only (PA-003, blaVIM [1]; ATM 1/4 MIC): 10.18 Log CFU/mL; Log CFU/mL, ATM only (PA-003, blaVIM [1]; ATM 1 MIC): 9.13 Log CFU/mL; Log CFU/mL, ATM only (PA-003, blaVIM [1]; ATM 2 MIC): 6.40 Log CFU/mL; Log CFU/mL, ATM only (PA-014, blaGES; ATM 1/2 MIC): 8.83 Log CFU/mL; Log CFU/mL, ATM only (PA-014, blaGES; ATM 1/4 MIC): 9.33 Log CFU/mL; Log CFU/mL, ATM only (PA-014, blaGES; ATM 1 MIC): 7.68 Log CFU/mL; Log CFU/mL, ATM only (PA-014, blaGES; ATM 2 MIC): 2.45 Log CFU/mL; Susceptibility to ATM (PA-037, blaIMP/NDM; PA-037, ATM alone): S (S (sensitive, MIC ≤ 8 mg/L)); Susceptibility category (PA-037, blaIMP/NDM; PA-037, Table S2): S; MIC (PA-037, blaIMP/NDM; PA-037, Table S2, read-out: MIC value): 2 µg/mL; MIC (PA-037, blaIMP/NDM; read-out: MIC of ATM, PA-037, ATM alone (5 at 0 mg/L)): 4 µg/mL; Susceptibility to ATM (PA-044, blaNDM; PA-044, ATM alone): I (I (intermediate, MIC = 16 mg/L)); Susceptibility category (PA-044, blaNDM; PA-044, Table S2): I; MIC (PA-044, blaNDM; Pseudomonas aeruginosa, read-out: MIC of ATM, PA-044, ATM alone (5 at 0 mg/L)): 16 µg/mL; Susceptibility to ATM (PA-038, blaNDM; ATM alone): I (I (intermediate, MIC = 16 mg/L)); Susceptibility category (PA-038, blaNDM; Table S2): I; Susceptibility to ATM (PA-002, blaIMP; PA-002, ATM alone): R (R (resistant, MIC ≥ 32 mg/L)); Susceptibility category (PA-002, blaIMP; PA-002, Table S2): R; MIC (PA-002, blaIMP; PA-002, Table S2, read-out: MIC value): 32 µg/mL; MIC (PA-002, blaIMP; read-out: MIC of ATM, PA-002, ATM alone (5 at 0 mg/L)): 32 µg/mL; Susceptibility to ATM (PA-030, blaIMP; ATM alone): R (R (resistant, MIC ≥ 32 mg/L)); Susceptibility category (PA-030, blaIMP; Table S2): R; MIC (PA-030, blaIMP; Pseudomonas aeruginosa, Table S2, read-out: MIC value): 32 µg/mL; Susceptibility to ATM (PA-027, blaIMP; PA-027, ATM alone): R (R (resistant, MIC ≥ 32 mg/L)); Susceptibility category (PA-027, blaIMP; PA-027, Table S2): R; MIC (PA-027, blaIMP; PA-027, Table S2, read-out: MIC value): 32 µg/mL; MIC (PA-027, blaIMP; read-out: MIC of ATM, PA-027, ATM alone (5 at 0 mg/L)): 32 µg/mL; Susceptibility to ATM (PA-029, blaIMP; PA-029, ATM alone): R (R (resistant, MIC ≥ 32 mg/L)); Susceptibility category (PA-029, blaIMP; PA-029, Table S2): R; MIC (PA-029, blaIMP; PA-029, Table S2, read-out: MIC value): 32 µg/mL; MIC (PA-029, blaIMP; read-out: MIC of ATM, PA-029, ATM alone (5 at 0 mg/L)): 32 µg/mL; Log CFU/mL, ATM only ([2]; ATM 1/2 MIC): 9.31 Log CFU/mL; Log CFU/mL, ATM only ([2]; ATM 1/4 MIC): 9.57 Log CFU/mL; Log CFU/mL, ATM only ([2]; ATM 1 MIC): 8.02 Log CFU/mL; Log CFU/mL, ATM only ([2]; ATM 2 MIC): 0.17 Log CFU/mL; Susceptibility to ATM (PA-003, blaVIM [3]; PA-003, ATM alone): R (R (resistant, MIC ≥ 32 mg/L)); Susceptibility category (PA-003, blaVIM [3]; PA-003, Table S2): I; MIC (PA-003, blaVIM [3]; Pseudomonas aeruginosa, read-out: MIC of ATM): 32 µg/mL
